Data reported in patent US5223527A, “Isatineoxime derivatives and their use” (NeuroSearch A/S, priority 1992, dated 1993).
pIC50: −log10 of the molar value. Like-named read-outs stand apart in the source and are kept apart here.

Tests used:
[1] = test system: AMPA-induced clonic seizures in NMRI mice; assay: AMPA-induced clonic seizures (AMPA seizure test); assay type: in vivo; settings: Mus musculus, female NMRI mice, dose inhibiting 50% of the mice from having clonic seizures
Protocol: AMPA given icv (intracerebroventricular) (15 μg/kg) NMRI to mice induces clonic seizures which should be inhibited by non-NMDA receptor antagonists.
Test compound was given i.v. 5 min (or p.o. 30 min) before a 0.3 μg icv administration of AMPA to 10 female NMRI mice (weighing 24-26 g) per dose. The number of mice experiencing clonic seizures within the next 5 min was noted. An ED50 value was calculated as the dose inhibiting 50% of the mice from having clonic seizures.

[2] = target: AMPA binding site; assay: AMPA binding assay (T. Honore et al., Neuroscience Letters 54, 27-32 (1985))

pIC50 [2]: 5.70
Compound: CN(C)S(=O)(=O)c1cc2c(c3c1CCCC3)NC(=O)C2=NO [5-N,N-dimethylsulfamoyl-1H-6,7,8,9-tetrahydrobenz[g]indole-2,3-dione-3-oxime]
ED50 ([1]; iv, 5 min, administered i.v. 5 min before 0.3 μg icv AMPA, read-out: ED50 in the AMPA seizure test, i.v.): 3 mg/kg | ED50 ([1]; po, 0.5 h, administered orally (p.o.) 30 min before 0.3 μg icv AMPA, read-out: ED50 in the AMPA seizure test, orally): 30 mg/kg
